Literature values in patent US8338613B2, “Process for the preparation of bidentate schiff base ruthenium catalysts containing a salicylaldimine-type ligand” (RIMTEC Corporation, priority 2009, dated 2012).

Conditions: in water (for Ag2CO3)

pKb, about 3.69:
O=C([O-])[O-].[Na+].[Na+] [Na2CO3]
O=C([O-])[O-].[K+].[K+] [K2CO3]
O=C([O-])[O-].[Cu+2] [CuCO3]
O=C([O-])[O-].[Li+].[Li+] [Li2CO3]
